From PubChem BioAssay (NCI)
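Five concentrations, 48 hours, 96-well plates. TGI is the concentration that stops growth completely.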

Legend:
Experiment in all cases: NCI tumour cell line growth inhibition, 48 h
OVCAR-3 ovarian = tested on: OVCAR-3 ovarian
CCRF-CEM leukemia = tested on: CCRF-CEM leukemia
HCT-15 colon = tested on: HCT-15 colon
K-562 leukemia = tested on: K-562 leukemia
RPMI-8226 leukemia = tested on: RPMI-8226 leukemia
SNB-19 CNS = tested on: SNB-19 CNS
UACC-257 melanoma = tested on: UACC-257 melanoma
BT-549 breast = tested on: BT-549 breast
A498 renal = tested on: A498 renal
SF-295 CNS = tested on: SF-295 CNS
DU-145 prostate = tested on: DU-145 prostate
U251 CNS = tested on: U251 CNS
CAKI-1 renal = tested on: CAKI-1 renal
UACC-62 melanoma = tested on: UACC-62 melanoma
ACHN renal = tested on: ACHN renal
786-0 renal = tested on: 786-0 renal
LOX IMVI melanoma = tested on: LOX IMVI melanoma
COLO 205 colon = tested on: COLO 205 colon
IGROV1 ovarian = tested on: IGROV1 ovarian
HCT-116 colon = tested on: HCT-116 colon
SK-MEL-2 melanoma = tested on: SK-MEL-2 melanoma
MDA-N = tested on: MDA-N
SW-620 colon = tested on: SW-620 colon
SK-MEL-28 melanoma = tested on: SK-MEL-28 melanoma
RXF 393 renal = tested on: RXF 393 renal
MCF7 breast = tested on: MCF7 breast
MDA-MB-231 breast = tested on: MDA-MB-231 breast
HOP-92 NSCLC = tested on: HOP-92 NSCLC
NCI-H460 lung = tested on: NCI-H460 lung
OVCAR-8 ovarian = tested on: OVCAR-8 ovarian
EKVX NSCLC = tested on: EKVX NSCLC
SNB-75 CNS = tested on: SNB-75 CNS
HS 578T breast = tested on: HS 578T breast
TK-10 renal = tested on: TK-10 renal
OVCAR-4 ovarian = tested on: OVCAR-4 ovarian
HT29 colon = tested on: HT29 colon
MOLT-4 leukemia = tested on: MOLT-4 leukemia
SF-268 CNS = tested on: SF-268 CNS
MDA-MB-435 = tested on: MDA-MB-435
SK-OV-3 ovarian = tested on: SK-OV-3 ovarian
OVCAR-5 ovarian = tested on: OVCAR-5 ovarian
SK-MEL-5 melanoma = tested on: SK-MEL-5 melanoma
NCI-H23 lung = tested on: NCI-H23 lung
HCC-2998 colon = tested on: HCC-2998 colon
SF-539 CNS = tested on: SF-539 CNS
SN12C renal = tested on: SN12C renal
PC-3 prostate = tested on: PC-3 prostate
NCI/ADR-RES ovarian = tested on: NCI/ADR-RES ovarian
NCI-H226 lung = tested on: NCI-H226 lung
A549 NSCLC = tested on: A549 NSCLC
HOP-62 NSCLC = tested on: HOP-62 NSCLC
SR leukemia = tested on: SR leukemia
UO-31 renal = tested on: UO-31 renal

COC(=O)Cc1c([C@@H]2Nc3ccccc3[C@H]2CC(=O)OC)[nH]c2ccccc12
TGI (OVCAR-3 ovarian): 42.8 µM
TGI (CCRF-CEM leukemia): > 100 µM
TGI (HCT-15 colon): > 100 µM
TGI (K-562 leukemia): 77.7 µM
TGI (RPMI-8226 leukemia): 49.4 µM
TGI (SNB-19 CNS): > 100 µM
TGI (UACC-257 melanoma): 81.6 µM
TGI (BT-549 breast): 75 µM
TGI (A498 renal): > 100 µM
TGI (SF-295 CNS): > 100 µM
TGI (DU-145 prostate): > 100 µM
TGI (U251 CNS): > 100 µM
TGI (CAKI-1 renal): > 100 µM
TGI (UACC-62 melanoma): 34.3 µM
TGI (ACHN renal): > 100 µM
TGI (786-0 renal): > 100 µM
TGI (LOX IMVI melanoma): > 100 µM
TGI (COLO 205 colon): 34.8 µM
TGI (IGROV1 ovarian): > 100 µM
TGI (HCT-116 colon): > 100 µM
TGI (SK-MEL-2 melanoma): 34.8 µM
TGI (MDA-N): > 100 µM
TGI (SW-620 colon): > 100 µM
TGI (SK-MEL-28 melanoma): > 100 µM
TGI (RXF 393 renal): > 100 µM
TGI (MCF7 breast): > 100 µM
TGI (MDA-MB-231 breast): 88.9 µM
TGI (HOP-92 NSCLC): > 100 µM
TGI (NCI-H460 lung): 65.5 µM
TGI (OVCAR-8 ovarian): > 100 µM
TGI (EKVX NSCLC): > 100 µM
TGI (SNB-75 CNS): > 100 µM
TGI (HS 578T breast): > 100 µM
TGI (TK-10 renal): > 100 µM
TGI (OVCAR-4 ovarian): > 100 µM
TGI (HT29 colon): > 100 µM
TGI (MOLT-4 leukemia): 68.9 µM
TGI (SF-268 CNS): > 100 µM
TGI (MDA-MB-435): 84.8 µM
TGI (SK-OV-3 ovarian): > 100 µM
TGI (OVCAR-5 ovarian): > 100 µM
TGI (SK-MEL-5 melanoma): 21 µM
TGI (NCI-H23 lung): > 100 µM
TGI (HCC-2998 colon): > 100 µM
TGI (SF-539 CNS): 67.5 µM
TGI (SN12C renal): > 100 µM
TGI (PC-3 prostate): > 100 µM
TGI (NCI/ADR-RES ovarian): > 100 µM
TGI (NCI-H226 lung): > 100 µM
TGI (A549 NSCLC): > 100 µM
TGI (HOP-62 NSCLC): > 100 µM
TGI (SR leukemia): 71.4 µM
TGI (UO-31 renal): 81.6 µM
